Experiment: Stability of the R,R′-atracurium salts in a closed vial at room temperature, monitored by HPLC
Assay type: physicochemical
Details: solid salt; for % content of the 1R-cis,1′R-cis isomer in the sample, After 19 days / % content of the 1R-cis,1′R-cis isomer in the sample, After 34 days / % content of the 1R-cis,1′R-cis isomer in the sample, After 47 days: HPLC; for % content of the 1R-cis,1′R-cis isomer in the sample, Reference sample (t0): t0, HPLC
Text: 1 g of the R,R′-atracurium salt was placed in a closed vial, which was left aside at room temperature. From time to time the vial was opened and a sample was withdrawn and monitored by HPLC. The results are summarized in Table 3 and expressed as % content of the 1R-cis,1′R-cis isomer in the sample as function of the elapsed time, as measured by HPLC.

| Compound | % content of the 1R-cis,1′R-cis isomer in the sample, After 19 days [%] | % content of the 1R-cis,1′R-cis isomer in the sample, After 34 days [%] | % content of the 1R-cis,1′R-cis isomer in the sample, After 47 days [%] | % content of the 1R-cis,1′R-cis isomer in the sample, Reference sample (t0) [%] |
| --- | --- | --- | --- | --- |
| R,R′-atracurium perchlorate | 92.1 | 92.7 | 92.3 | 98 |
| R,R′-atracurium tetrafluoroborate | 88.8 | 85.3 | 82.6 | 98.2 |
| COc1ccc(C[C@@H]2c3cc(OC)c(OC)cc3CC[N+]2(C)CCC(=O)OCCCCCOC(=O)CC[N+]2(C)CCc3cc(OC)c(OC)cc3[C@H]2Cc2ccc(OC)c(OC)c2)cc1OC.O=S(=O)([O-])c1ccccc1.O=S(=O)([O-])c1ccccc1 (stereo partly drawn) [besylate, R,R′-atracurium besylate, reference compound] | 80.5 | 15.1 | 7.9 | 97.2 |

Reference: patent US8354537B2, “R,R1-atracurium salts” (CHEMAGIS Ltd., priority 2007, dated 2013)
